Assay results: US20240082128A1, “COMPOSITION FOR USE IN DEGRADATION OF BIOFILM OR PREVENTION OF BIOFILM FORMATION” (Pharmiva AB, priority 2021, published 2024)
“Also recorded” adds a separate entry of the source.

What was measured:
[1] = Viscosity of polymer gel used as biofilm extracellular matrix proxi (degradation); details: 10 g formulation added to gel, viscosity up to 24 hours
Description: Three different gels were used in the study reported in Example 2 below: 2% natrosol gel, 2% alginate gel and 6% pectin gel. FeSO4 (10 mM) was added to the gels during manufacturing and acts as a catalysator and by mimic oxidation potential in biological fluids.
The alginate and Natrosol gel were manufactured by adding sodium Alginate/Natrosol to the water solution containing FeSO4, during stirring. The pectin gel was manufactured by heating the water to 80° C. and add pectin as well as FeSO4 during stirring. After manufacture, 6 glass vials (60 mL) were filled with 40 mL of the gel.
In general, biofilms consist of polymers consisting of polysaccharides, most commonly alginates, extracellular proteins, DNA and small amounts of surfactants and lipid. In this experiment, commercially available polymers were used as proxi (i.e. a measurement of one physical quantity (polymer) as an indicator of the value of another (biofilm)) to model the extracellular matrix of biofilm. […]
For each test, following method was used: First, viscosity of the pure gel was measured. […] Viscosity was measured immediately before addition of the formulation or composition, immediately after addition of the formulation or composition, 10 min, 1 hour and 24 hours addition of the formulation or composition. […]

Candida = details: cited from earlier work
Lactobacillus = details: used for treatment of bacterial vaginosis; cited from earlier work
Gardnerella vaginalis = details: cited from earlier work
[2] = tested on: Candida albicans (ATCC 90028) biofilm; test: Biofilm viability, plate count method; type: cell-based; details: C. albicans; 48 h biofilm exposed 24 h at 37° C.; mean ± SD
Description: (§1) Gardnerella vaginalis (ATCC® 14018™) and Candida albicans (ATCC® 90028™) were grown on microtiter plates for 48 h at 37° C.±2° C. before being rinsed with PBS to remove planktonic cells. Thereafter the biofilms of the two microorganisms were exposed to the bulk cream and its components (as well as clinical comparators Metronidazole gel and Monistat 7) for 24 h at 37° C.±2° C. The efficacy of formulations in removing biofilm biomass of G. vaginalis and C. albicans was assessed using a crystal violet staining assay and the efficacy of formulations to decrease biofilm viability of G. vaginalis and C. albicans was assessed by plate count method.

[3] = tested on: Gardnerella vaginalis (ATCC 14018) biofilm; test: Biofilm viability, plate count method; type: cell-based; details: G. vaginalis
Description: as §1

[4] = tested on: Candida albicans (ATCC 90028) biofilm; test: Biofilm biomass removal, crystal violet staining assay; type: cell-based; details: C. albicans
Description: as §1

[5] = tested on: Gardnerella vaginalis (ATCC 14018) biofilm; test: as above; type: cell-based; details: G. vaginalis
Description: as §1

biofilm = details: for one hour; cited from earlier work
microorganisms = details: 5 nM hydrogen peroxide (endogenous stress); cited from earlier work
[6] = 48 h biofilm exposed 24 h at 37° C.
[7] = 48 h biofilm exposed 24 h at 37° C., mean ± SD, n = 3

lactic acid [0.3% lactic acid solution with 0.7% NaOH]
Decrease in viscosity of polymer gel with time (polymer degradation) ([1]; Alginate gel, FIGS. 1B, 2B): viscosity decrease was observed over time | Decrease in viscosity of polymer gel with time (polymer degradation) ([1]; Natrosol gel, FIGS. 1A, 2A): viscosity decrease was observed over time

CCCCCCCCCCCC(=O)OCC(O)CO (stereo not shown) [glycerol monolaurate]
Inhibitory effect (Candida): inhibitory effect | Influence on Lactobacillus count (Lactobacillus): does not influence Lactobacillus count | Inhibitory effect (Gardnerella vaginalis): inhibitory effect

OO [0.3% H2O2 aq. sol., hydrogen peroxide]
Biofilm viability [2]: 2.90 ± 0.130 Log10 CFU/mL | Biofilm viability ([3]; 48 h biofilm exposed 24 h at 37° C., mean ± SD): 2.47 ± 0.119 Log10 CFU/mL | Decrease of biofilm viability (in words) ([3]; FIG. 4B): efficiently decrease the viability | Removal of biofilm biomass (in words) ([4]; 24 hours incubation, FIG. 3A): efficiently remove biomass | Biofilm forming potential [4, 6]: Medium | Biofilm biomass, optical density at 570 nm [4, 7]: 0.46 ± 0.11 | Removal of biofilm biomass (in words) ([5]; 24 hours incubation, FIG. 3B, listed as 0.3% H2O2 solution): efficiently diminish the biofilm biomass; also recorded: efficiently remove biomass | Biofilm forming potential [5, 6]: Low/no | Biofilm biomass, optical density at 570 nm [5, 7]: 0.27 ± 0.002

OO [hydrogen peroxide]
Concentration needed as sole agent to reduce the amount of biofilm by 85% (biofilm): 0.5 % w/w | Effect on biofilm formation (microorganisms): biofilm formation was promoted
